Where “and” joins values, the source holds several entries; their conditions need not be identical. Equal values may be shown once. Entries after “also recorded” stand apart in the source; their conditions may differ.
Assays:
[1] = target: T1, P2X3 receptors (Homo sapiens, UniProt P56373); conditions: cited from earlier work
T1 sequence (P56373 1-397): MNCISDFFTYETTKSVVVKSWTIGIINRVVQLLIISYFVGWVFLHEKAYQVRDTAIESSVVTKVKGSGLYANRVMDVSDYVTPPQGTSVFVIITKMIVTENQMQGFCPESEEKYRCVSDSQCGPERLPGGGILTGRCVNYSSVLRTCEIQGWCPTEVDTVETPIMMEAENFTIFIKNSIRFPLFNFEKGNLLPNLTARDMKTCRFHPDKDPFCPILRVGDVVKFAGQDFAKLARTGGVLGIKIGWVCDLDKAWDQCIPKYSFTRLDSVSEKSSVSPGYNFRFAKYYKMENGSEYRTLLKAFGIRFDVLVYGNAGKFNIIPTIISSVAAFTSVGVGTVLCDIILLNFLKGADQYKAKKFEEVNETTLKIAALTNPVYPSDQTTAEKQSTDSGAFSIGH

[2] = target: T2, mouse P2X4 receptors (Mus musculus, UniProt Q9JJX6); conditions: cited from earlier work
T2 sequence (Q9JJX6 1-388): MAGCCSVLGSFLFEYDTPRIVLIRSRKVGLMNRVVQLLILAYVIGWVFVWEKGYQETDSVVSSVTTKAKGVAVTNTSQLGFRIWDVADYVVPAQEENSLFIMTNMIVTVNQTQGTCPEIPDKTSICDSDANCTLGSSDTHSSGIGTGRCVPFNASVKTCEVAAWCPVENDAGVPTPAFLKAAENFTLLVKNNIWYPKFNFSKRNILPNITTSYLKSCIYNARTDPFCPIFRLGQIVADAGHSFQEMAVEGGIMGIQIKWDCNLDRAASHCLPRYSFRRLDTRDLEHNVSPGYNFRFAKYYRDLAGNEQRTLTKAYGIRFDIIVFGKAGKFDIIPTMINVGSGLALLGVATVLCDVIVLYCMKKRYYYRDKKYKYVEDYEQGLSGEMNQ

[3] = target: P2X5 receptors (Homo sapiens, UniProt Q93086); conditions: cited from earlier work
Sequence of P2X5 receptors (Q93086 whole entry): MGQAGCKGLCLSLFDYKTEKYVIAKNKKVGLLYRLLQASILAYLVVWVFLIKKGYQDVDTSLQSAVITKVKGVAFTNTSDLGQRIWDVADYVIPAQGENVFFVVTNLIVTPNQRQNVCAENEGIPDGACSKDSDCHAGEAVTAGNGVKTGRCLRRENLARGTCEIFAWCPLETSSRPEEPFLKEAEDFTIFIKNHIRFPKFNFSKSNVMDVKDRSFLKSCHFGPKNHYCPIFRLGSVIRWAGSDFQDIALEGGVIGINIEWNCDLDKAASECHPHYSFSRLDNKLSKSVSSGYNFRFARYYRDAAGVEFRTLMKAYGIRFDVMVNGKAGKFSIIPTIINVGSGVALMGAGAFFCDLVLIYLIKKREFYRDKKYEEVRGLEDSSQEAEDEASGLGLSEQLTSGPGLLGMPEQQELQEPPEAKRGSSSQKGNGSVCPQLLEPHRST

[4] = system: DRG neurons; assay: Calcium imaging of cultured DRG neurons: antagonist effects on responses to capsaicin, ATP or KCl (selectivity control); assay type: cell-based, mouse
From the text: (§1) Harvesting/culturing cells/loading cells: Thirty-nine three week old (4 wells of DRG neurons plated from each mouse), C57Bl/6 mice were anesthetized with isoflurane, and euthanized by cervical dislocation. Dorsal root ganglia (DRG) from lumbar regions were removed into HBSS, treated with trypsin, washed with MEM (Invitrogen 51200-038) containing 10% FBS (Hyclone), 2.4% glucose, 1% glutamax (Invitrogen 35050-061) and 1% penicillin/streptomycin (Atlanta Biological B2110). DRG were triturated, pre-plated and incubated at 37° C. for one hour to reduce non-neuronal cells. Neurons were gently swirled and centrifuged (110×g, 5 min). Cells were removed, re-suspended and 30 μL plated onto the 4 center wells of 24-well plates coated with poly-L-lysine and laminin. A 0.5 mm thick silicone ring with a 4 mm diameter opening sealed to the surface of each well reduced the plating area in each well. Following 1 hour, wells were filled with 37° C. culture medium with 10 ng/mL GDNF (Glial Derived Neurotrophic Factor) (Preprotech 450-10). Sixteen to 23 hours after plating, cultures were loaded with Fura-2 AM (Molecular Probes F-1221) fluorescent dye for 40-60 minutes, then washed with pH 7.4 oxygenated observation medium containing no additional ATP (145 mM NaCl, 5 mM KCl, 2 mM CaCl2, 1 mM MgCl2, 1 mM Citrate, 10 mM glucose, 10 mM MES, 10 mM HEPES). The final well volume was 500 μL.
(§2) JYL-1422, LJO-328, A-317567, and a selected stereo isomer of A-317567 were each dissolved in 5% DMSO/95% water and a few μL of 1M HCl to a concentration of 10 mM, then quick frozen and stored at −20° C. Aliquots of antagonists were thawed and diluted to the appropriate concentrations just prior to use in the experiments. The strong buffers maintained the pH of these antagonists when mixed with metabolites.
(§3) Imaging procedure: All experiments were performed at room temperature (20-25° C.) to allow correspondence with most previous experiments using calcium imaging and patch clamp of DRG neurons. Cells were imaged using the Meta Imaging Series Metafluor program (Universal Imaging Corp). All cells identifiable as neurons based on their round shape, clear, single nucleus, were selected from a phase image of the field. At the end of each experiment, 200 nM capsaicin was applied, followed by a wash, and then applied 50 mM KCl. Capsaicin activation indicated the presence of TRPV1 receptors on neurons, and KCl ensured that recorded objects were active neurons, and established the maximal calcium response in each neuron. For some neurons the administration of capsaicin abolished the potential for responding to KCl, thus either a response to capsaicin or to KCl indicated viability of neurons, and only viable neurons were included in analyses.
For each field an average of 151+10 cells were tracked real-time. […]

[5] = system: DRG neurons; assay: Calcium imaging of cultured DRG neurons: antagonist effects on responses to increasing metabolites (protons, lactate, ATP); assay type: cell-based, mouse
From the text: as §1
(§4) Combinations of metabolites applied to mimic naturally occurring conditions: When applied in an escalating series to mimic increases in metabolites that occur with muscle exercise and ischemic muscle exercise, the metabolite values shown in Table 1 were used. The values associated with pH 7.6 are at or below those normally found at rest in the mouse. The values at 7.4 approximate those found at rest. Generally, the low metabolite values associated with pH higher than 7.0 are likely to be non-noxious, while higher metabolite values at pH 7.0 and lower may be associated with pain. These values should bracket the physiological range of metabolites found in skeletal muscle with the last two values (those associated with 6.4 and 6.2) being higher than the physiological range (Bangsbo et al., 1993; Bangsbo et al., 2001; Li et al., 2003; Li et al., 2005; Reeh and Kress, 2001; Steinhagen et al., 1976).
as §2, §3
For each field an average of 151+10 cells were tracked real-time. […] FIGS. 1 and 2 show traces from these graphs. […]

[6] = target: T3, ASIC3 (Homo sapiens, UniProt Q9UHC3); conditions: pH 7.0; cited from earlier work
T3 sequence (Q9UHC3 1-531): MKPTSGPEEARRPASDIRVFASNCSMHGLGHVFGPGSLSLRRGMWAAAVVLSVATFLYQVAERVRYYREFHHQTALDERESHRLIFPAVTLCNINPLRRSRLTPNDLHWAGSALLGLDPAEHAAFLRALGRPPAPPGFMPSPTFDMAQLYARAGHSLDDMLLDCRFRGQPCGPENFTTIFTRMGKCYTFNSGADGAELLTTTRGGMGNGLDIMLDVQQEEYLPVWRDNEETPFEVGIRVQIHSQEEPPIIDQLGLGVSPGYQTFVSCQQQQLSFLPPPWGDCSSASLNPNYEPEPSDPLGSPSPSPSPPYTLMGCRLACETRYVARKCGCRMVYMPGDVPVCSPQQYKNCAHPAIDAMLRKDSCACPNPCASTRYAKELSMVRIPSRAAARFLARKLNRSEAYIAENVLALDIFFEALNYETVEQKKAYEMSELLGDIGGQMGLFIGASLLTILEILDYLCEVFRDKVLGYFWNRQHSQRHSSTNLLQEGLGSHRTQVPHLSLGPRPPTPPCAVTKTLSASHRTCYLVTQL

[7] = system: ASIC receptor; conditions: cited from earlier work
[8] = target: TRPV1 (Homo sapiens, UniProt Q8NER1); conditions: cited from earlier work
Sequence of TRPV1 (Q8NER1 whole entry, species assumed): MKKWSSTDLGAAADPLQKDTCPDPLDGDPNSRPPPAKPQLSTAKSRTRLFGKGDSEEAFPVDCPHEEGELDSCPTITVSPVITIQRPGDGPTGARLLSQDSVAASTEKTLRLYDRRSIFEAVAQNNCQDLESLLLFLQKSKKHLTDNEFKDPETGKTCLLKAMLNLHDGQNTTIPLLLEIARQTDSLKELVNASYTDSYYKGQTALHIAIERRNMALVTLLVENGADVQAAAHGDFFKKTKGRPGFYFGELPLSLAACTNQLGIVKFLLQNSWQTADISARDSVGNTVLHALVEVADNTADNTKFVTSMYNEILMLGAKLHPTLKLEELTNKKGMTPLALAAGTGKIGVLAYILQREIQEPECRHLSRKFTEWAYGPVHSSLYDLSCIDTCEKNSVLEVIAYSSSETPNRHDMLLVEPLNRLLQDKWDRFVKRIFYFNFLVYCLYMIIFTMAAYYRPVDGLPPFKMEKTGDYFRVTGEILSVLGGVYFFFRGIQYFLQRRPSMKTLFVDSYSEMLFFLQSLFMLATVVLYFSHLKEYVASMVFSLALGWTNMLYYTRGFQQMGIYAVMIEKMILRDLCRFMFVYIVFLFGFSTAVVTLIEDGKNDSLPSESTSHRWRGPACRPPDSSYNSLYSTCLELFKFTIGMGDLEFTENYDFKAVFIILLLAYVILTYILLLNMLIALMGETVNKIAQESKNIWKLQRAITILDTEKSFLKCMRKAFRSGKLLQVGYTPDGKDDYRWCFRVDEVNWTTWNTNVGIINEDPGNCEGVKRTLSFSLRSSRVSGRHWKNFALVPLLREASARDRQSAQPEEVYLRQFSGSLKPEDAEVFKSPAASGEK

[9] = target: TRPV1 receptors (Mus musculus, UniProt Q704Y3); conditions: cited from earlier work
Sequence of TRPV1 receptors (Q704Y3 whole entry): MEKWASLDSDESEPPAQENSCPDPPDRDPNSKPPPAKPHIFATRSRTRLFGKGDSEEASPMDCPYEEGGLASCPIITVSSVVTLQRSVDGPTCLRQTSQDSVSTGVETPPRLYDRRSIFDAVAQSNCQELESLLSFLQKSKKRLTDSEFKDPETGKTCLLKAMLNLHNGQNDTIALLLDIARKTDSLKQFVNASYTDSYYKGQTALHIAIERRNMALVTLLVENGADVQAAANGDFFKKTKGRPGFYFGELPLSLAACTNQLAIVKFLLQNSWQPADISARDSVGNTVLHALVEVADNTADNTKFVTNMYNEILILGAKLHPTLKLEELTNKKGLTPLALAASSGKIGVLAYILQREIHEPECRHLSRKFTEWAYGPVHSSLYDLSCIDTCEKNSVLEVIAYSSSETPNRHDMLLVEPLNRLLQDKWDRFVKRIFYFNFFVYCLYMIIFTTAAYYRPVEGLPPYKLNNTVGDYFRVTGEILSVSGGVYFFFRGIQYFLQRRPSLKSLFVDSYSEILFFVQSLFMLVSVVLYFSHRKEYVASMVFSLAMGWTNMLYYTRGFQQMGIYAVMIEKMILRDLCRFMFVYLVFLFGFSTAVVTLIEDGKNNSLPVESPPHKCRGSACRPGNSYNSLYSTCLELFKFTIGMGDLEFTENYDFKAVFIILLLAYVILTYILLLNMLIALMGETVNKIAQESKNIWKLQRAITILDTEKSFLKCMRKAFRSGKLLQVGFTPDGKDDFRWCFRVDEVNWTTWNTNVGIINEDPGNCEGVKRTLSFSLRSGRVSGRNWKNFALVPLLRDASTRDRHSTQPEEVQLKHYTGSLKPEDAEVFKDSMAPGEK

[10] = system: DRG neurons; conditions: patch-clamp, previous reports; cited from earlier work
[11] = system: DRG neurons; assay: Calcium imaging of cultured DRG neurons: percent of neurons responding to applied metabolites or capsaicin; assay type: cell-based, mouse; conditions: 200 nM
From the text: as §1
Choice and concentrations of metabolites: Because the afferent receptors in muscle have been reported to be on the outside of blood vessels supplying muscle, values obtained for muscle interstitium from experiments using cat, rat, and human for muscle contraction evoked by mild to moderate to extreme exercise were used.
Protons (pH): Values between 7.6 and 6.2 were used spanning the range found in skeletal and cardiac muscle in mammals from above resting values to those found with injury and disease.
Lactate: 1-50 mM lactate was used, a range of values that spans from rest to ischemia in muscles of humans and rats and mice.
ATP: ATP concentrations in muscle interstitium increase from 300 nM at rest to 5 μM with ischemic muscle contraction (Hellsten et al., 1998; Li et al., 2003; Li et al., 2005). These levels were used in the experiments described below. […] To allow for physiological levels of desensitization of possible P2X receptors, freshly prepared ATP at 300 nM was used for at least 30 seconds before any further increases in ATP combined with other metabolites, to establish resting conditions in DRG neurons in these experiments. […] Also used were pH 6.0 and 4.0 without additional increases in metabolites to confirm that the imaging experiments could replicate recent reports using patch-clamp techniques (Leffler et al., 2006).
as §4
Di-I labeling: In some experiments, neurons were identified as innervating muscle by prior muscle labeling with Di-I. Twelve 7-9 day old mice were anesthetized by cooling. […]

TNP-ATP
IC50 [1]: 0.00031 µM and 0.0003 µM
IC50 [2]: 16 µM
IC50 [3]: 0.5 µM
capsaicin and KCl responses in presence of antagonist ([4]; any dose): unaffected
effect on responses to increasing metabolites ([5]; antagonist 10 nM): facilitated responses; also recorded: can increase responses of DRG neurons to increasing metabolites
effect on responses to increasing metabolites ([5]; antagonist 200 μM): blocked nearly all responses to metabolites; also recorded: abolished most responses to increasing metabolites
effect on metabolite responses associated with pH 6.8 and above ([5]; antagonist 1 and 10 μM): had little effect
effect on responses to low metabolites ([5]; antagonist 1 and 10 μM (FIG. 2 legend: 1 μM), metabolites between pH 7.3-7.0): reduced low metabolite responses; also recorded: reduced responses of DRG neurons; also recorded: eliminated most responses to low metabolites
effect on responses to increasing metabolites ([5]; antagonist 200-300 μM, doses effective at all P2X receptors): eliminated nearly all responses to increasing metabolites
effect on responses to metabolites ([5]; antagonist at 10 μM (so in the source), p<0.05): increased responses to metabolites

N=C(N)NC(=O)c1nc(Cl)c(N)nc1N [Amiloride]
effect on ASIC3 responses to moderate pH levels [6]: enhanced
effect on ASIC receptor responses to low pH [7]: antagonizes all ASIC receptor responses to low pH

Cc1ccc(CC(CNC(=S)NCc2ccc(NS(C)(=O)=O)c(F)c2)COC(=O)C(C)(C)C)cc1C (centres unmarked) [JYL-1433]
TRPV1 antagonism [8]: potent full antagonists of TRPV1
responses to KCl application in presence of antagonist ([4]; antagonist 2 μM, 50 mM KCl): remained normal

Oc1cc2c(cc1O)CN(C(=S)NCCc1ccc(Cl)cc1)CCC2 [Capsazepine]
inhibitory action on pH responses of TRPV1 receptors [9]: little inhibitory action

COc1cc(CNC(=O)CCCC/C=C/C(C)C)ccc1O [capsaicin]
capsaicin responses in DRG neurons, percent [10]: 36% and 20%
percentage of DRG neurons responding with rapid calcium increase ([11]; all DRG neurons): 50.9±4.2%
percentage of DRG neurons responding with rapid calcium increase ([11]; all muscle labeled neurons): 48.8 ± 5.8%
percentage of DRG neurons responding with rapid calcium increase ([11]; metabolite-responding DRG neurons): 71.9 ± 4.2%
percentage of DRG neurons responding with rapid calcium increase ([11]; muscle labeled metabolite responders): 63.4 ± 5.8%

Reference: patent US20110262395A1, “SENSORY RECEPTORS FOR CHRONIC FATIGUE AND PAIN AND USES THEREOF” (UNIVERSITY OF UTAH RESEARCH FOUNDATION, priority 2008, published 2011)
